Data: patent US20240148821A1, “PHARMACEUTICAL USE OF CYCLIC PEPTIDE COMPOUND” (CHUGAI SEIYAKU KABUSHIKI KAISHA, priority 2021, published 2024)
Numbered stars: 1 amine (or outer) side, 2 acyl side, 3 side chain; on linkers, the order of the positions; unused ones are H or OH. Bridge positions count the residues as written; N and C are the ends. Square brackets hold non-standard residues; d marks the D form. Peptide text beside a SMILES is read from it. * marks the point of attachment. hPhe(3,5-F2-4-CF3) = N[C@@H](CCc1cc(F)c(C(F)(F)F)c(F)c1)C(=O)O; hPhe(3-Cl-4-CF3) = N[C@@H](CCc1ccc(C(F)(F)F)c(Cl)c1)C(=O)O; hPhe(3-F,4-CF3) = N[C@@H](CCc1ccc(C(F)(F)F)c(F)c1)C(=O)O; NMePhe(4-CF3) = CN[C@@H](Cc1ccc(C(F)(F)F)cc1)C(=O)O; hPhe(4-CF3) = N[C@@H](CCc1ccc(C(F)(F)F)cc1)C(=O)O; X37 = CC(C)(C)NC(=O)COC[C@H](CC(=O)[*:1])N[*:2]; NMePhe(4-Cl) = CN[C@@H](Cc1ccc(Cl)cc1)C(=O)O; NMePhe(4-Me) = CN[C@@H](Cc1ccc(C)cc1)C(=O)O; NMePhe(2-Cl) = CN[C@@H](Cc1ccccc1Cl)C(=O)O; hPhe(4-Cl) = N[C@@H](CCc1ccc(Cl)cc1)C(=O)O; NMedβ3hAla = C[C@H](CC(=O)[*:2])N(C)[*:1]; NMeGly(cPent) = CN[C@H](C(=O)O)C1CCCC1; Pro(4,4-F2) = O=C(O)[C@@H]1CC(F)(F)CN1; NMeCha = CN[C@@H](CC1CCCCC1)C(=O)O; NMeβAla = CN(CCC(=O)[*:2])[*:1]; NMeD = CN[C@@H](CC(=O)O)C(=O)O; NMeL = CN[C@@H](CC(C)C)C(=O)O; NMeV = CN[C@H](C(=O)O)C(C)C; d(β3hA) = C[C@@H](N)CC(=O)O; NMeS = CN[C@@H](CO)C(=O)O; Morpholide = C1CN(*)CCO1; NMeA = CN[C@@H](C)C(=O)O; NMeAib = CNC(C)(C)C(=O)O; Piperidide = C1CCN(*)CC1; Ac5c = NC1(C(=O)O)CCCC1; Aze = O=C(O)[C@@H]1CCN1; Aib = CC(C)(N)C(=O)O; Isopentyl = CC(C)CC*; Sar = CNCC(=O)O

The compounds below were run against protein-protein interaction between Kras and SOS1 (biotin-tagged human Kras loaded with GDP, His-tagged human SOS1) (Homo sapiens (Human), UniProt P01116, G12D) (assay: Protein-protein interaction inhibition between Kras and SOS1 (KrasG12D-SOS PPI) using AlphaScreen). Settings: AlphaScreen; biotin-tagged human Kras loaded with GDP, His-tagged human SOS1; read-out: KRAS G12D-SOS PPI IC50.
Assay type: biochemical

SMILES | IC50 [nM]
CC[C@H](C)[C@@H]1NC(=O)[C@H](CC(C)C)N(C)C(=O)C[C@@H](C(=O)N2CCCCC2)N(C)C(=O)[C@H](C(C)C)N(C)C(=O)C2(CCCC2)NC(=O)[C@@H]2CCCN2C(=O)[C@H](CCc2ccc(Cl)cc2)NC(=O)CN(C)C(=O)[C@H](CC2CCCCC2)N(C)C(=O)[C@@H]2CCN2C(=O)CN(C)C1=O [Compound 916] ([NMeL]I[Sar][Aze][NMeCha][Sar][hPhe(4-Cl)]P[Ac5c][NMeV][NMeD]-Piperidide; lactam N-11) | 42
CC[C@H](C)[C@@H]1NC(=O)[C@H](C)N(C)C(=O)C[C@@H](C(=O)N2CCOCC2)N(C)C(=O)[C@H](C(C)C)N(C)C(=O)C2(CCCC2)NC(=O)[C@H](Cc2ccccc2Cl)N(C)C(=O)[C@H](CCc2ccc(C(F)(F)F)c(Cl)c2)NC(=O)CN(C)C(=O)[C@H](CC2CCCCC2)N(C)C(=O)CN(C)C(=O)CN(C)C1=O [Compound 2020] ([NMeA]I[Sar][Sar][NMeCha][Sar][hPhe(3-Cl-4-CF3)][NMePhe(2-Cl)][Ac5c][NMeV][NMeD]-Morpholide; lactam N-11) | 270
CC[C@H](C)[C@@H]1NC(=O)[C@H](CC(C)C)N(C)C(=O)C[C@@H](C(=O)N2CCCCC2)N(C)C(=O)[C@H](C(C)C)N(C)C(=O)C2(CCCC2)NC(=O)[C@@H]2CCCN2C(=O)[C@H](CCc2ccc(C(F)(F)F)c(Cl)c2)NC(=O)CN(C)C(=O)[C@H](COCCC(C)C)N(C)C(=O)[C@@H]2CCN2C(=O)[C@H](C)N(C)C1=O [Compound 470] ([NMeL]I[NMeA][Aze][NMeS](Isopentyl)[Sar][hPhe(3-Cl-4-CF3)]P[Ac5c][NMeV][NMeD]-Piperidide; lactam N-11) | 2.2
CC[C@H](C)[C@@H]1NC(=O)[C@H](CC(C)C)N(C)C(=O)C[C@@H](C)N(C)C(=O)[C@H](C2CCCC2)N(C)C(=O)C2(CCCC2)NC(=O)[C@@H]2CC(F)(F)CN2C(=O)[C@H](CCc2cc(F)c(C(F)(F)F)c(F)c2)NC(=O)CN(C)C(=O)[C@H](Cc2ccc(C(F)(F)F)cc2)N(C)C(=O)[C@@H]2CCN2C(=O)[C@H](C)N(C)C1=O [Compound 900] (cyclo([Ac5c][NMeGly(cPent)][NMedβ3hAla][NMeL]I[NMeA][Aze][NMePhe(4-CF3)][Sar][hPhe(3,5-F2-4-CF3)][Pro(4,4-F2)])) | 0.84
CC[C@H](C)[C@@H]1NC(=O)[C@H](CC(C)C)N(C)C(=O)C[C@@H](C(=O)N(C)C)N(C)C(=O)[C@H](C(C)C)N(C)C(=O)C2(CCCC2)NC(=O)[C@@H]2CCCN2C(=O)[C@H](CCc2ccc(C(F)(F)F)c(Cl)c2)NC(=O)CN(C)C(=O)[C@H](Cc2ccc(C)cc2)N(C)C(=O)[C@@H]2CCN2C(=O)[C@H](C)N(C)C1=O [Compound 1653] ([NMeL]I[NMeA][Aze][NMePhe(4-Me)][Sar][hPhe(3-Cl-4-CF3)]P[Ac5c][NMeV][NMeD]-NMe2; lactam N-11) | 0.89
CC[C@H](C)[C@@H]1NC(=O)[C@H](CC(C)C)N(C)C(=O)C[C@@H](C(=O)N2CCCCC2)N(C)C(=O)[C@H](C(C)C)N(C)C(=O)C2(CCCC2)NC(=O)[C@@H]2CCCN2C(=O)[C@H](CCc2ccc(C(F)(F)F)c(Cl)c2)NC(=O)CN(C)C(=O)[C@H](Cc2ccc(Cl)cc2)N(C)C(=O)[C@@H]2CCN2C(=O)[C@H](C)N(C)C1=O [Compound 680] ([NMeL]I[NMeA][Aze][NMePhe(4-Cl)][Sar][hPhe(3-Cl-4-CF3)]P[Ac5c][NMeV][NMeD]-Piperidide; lactam N-11) | 9.9
CC[C@H](C)[C@@H]1NC(=O)[C@H](CC(C)C)N(C)C(=O)C[C@@H](COCC(=O)NC(C)(C)C)NC(=O)[C@H](CC(C)C)N(C)C(=O)C(C)(C)NC(=O)[C@H](CC(C)C)N(C)C(=O)[C@H](CCc2ccc(C(F)(F)F)cc2)NC(=O)CN(C)C(=O)[C@H](COCCC(C)C)N(C)C(=O)CN(C)C(=O)CN(C)C1=O [Compound 1538] ([NMeL]I[Sar][Sar][NMeS](Isopentyl)[Sar][hPhe(4-CF3)][NMeL][Aib][NMeL]; linker N-C via X37) | 110
CC[C@H](C)[C@@H]1NC(=O)[C@H](CC(C)C)N(C)C(=O)C[C@@H](C)NC(=O)[C@H](CC(C)C)N(C)C(=O)C(C)(C)NC(=O)[C@H](CC(C)C)N(C)C(=O)[C@H](CCc2ccc(C(F)(F)F)cc2)NC(=O)CN(C)C(=O)[C@H](Cc2ccc(Cl)cc2)N(C)C(=O)CN(C)C(=O)CN(C)C1=O [Compound 261] (cyclo([Aib][NMeL][d(β3hA)][NMeL]I[Sar][Sar][NMePhe(4-Cl)][Sar][hPhe(4-CF3)][NMeL])) | 52
CC[C@H](C)[C@@H]1NC(=O)[C@H](CC(C)C)N(C)C(=O)CCN(C)C(=O)[C@H](CC(C)C)NC(=O)C(C)(C)N(C)C(=O)[C@H](CC(C)C)NC(=O)[C@H](CCc2ccc(C(F)(F)F)c(F)c2)NC(=O)CN(C)C(=O)[C@H](CC2CCCCC2)N(C)C(=O)CN(C)C(=O)CN(C)C1=O [Compound 832] (cyclo(I[Sar][Sar][NMeCha][Sar][hPhe(3-F,4-CF3)]L[NMeAib]L[NMeβAla][NMeL])) | 120
